Here are results for eight molecules from patent US10543221B2, “Beta-lactamase inhibitors, formulations, and uses thereof” (priority 2016, dated 2020).

The test system of assay [1] is K. pneumoniae strain expressing KPC-2. It is filed as cell-based. The conditions noted are these: single agent; K. pneumoniae ATCC 4683, phenotype KPC-2. The procedure: (§1) MIC Studies. Compounds were tested for synergy with the carbapenem antibiotic, imipenem, against BL21(DE3) E. coli expressing KPC-2. MIC values were determined with the Mueller-Hinton broth microdilution method. To test for inhibitory activity, compounds were dissolved in DMSO and dilutions were carried out using LB broth. Compounds were test at 100 µM with increasing concentrations of imipenem. […] After inoculation, the plates are incubated at 37 C for 24 hours. The MIC of the compounds were then determined visually. […] For Table 3, 16 μg/mL of compounds were tested for synergy with the carbapenem antibiotic, imipenem, against a K. pneumoniae strain expressing KPC-2.

The target of assay [2] is VIM-2 (Escherichia coli, UniProt Q5U7L7). In words: Steady-state kinetic analysis, VIM-2. It is filed as biochemical.
Assay [3] deals with NDM-1 metallo-beta-lactamase (Klebsiella pneumoniae, UniProt C7C422). In words: Steady-state kinetic analysis, nitrocefin hydrolysis, NDM-1. It is filed as biochemical. The conditions noted are these: second NDM-1 column of Table 1.
For assay [4], the target named is KPC-2 beta-lactamase (Klebsiella pneumoniae, UniProt Q9F663). As to the kind of experiment: Steady-state kinetic analysis, nitrocefin hydrolysis, KPC-2. It is filed as biochemical. The conditions noted are these: nitrocefin substrate. The procedure: Fractions were analyzed by SDS-PAGE.
Steady-State Kinetic Analysis. Steady-state kinetic parameters were determined by using a Biotek Cytation Multi-Mode Reader. For KPC-2, each assay was performed in 100 mM Tris-HCl pH 7.0, 0.01% Triton X-100 at 37 C. […] Compounds according to Formulas 5-10 were purchased from commercial sources. The last compound was de novo synthesized.

In assay [5] the target is His-tag SHV-2 (Escherichia coli, UniProt P0A9Z7). The procedure:
Steady-State Kinetic Analysis. Steady-state kinetic parameters were determined by using a Biotek Cytation Multi-Mode Reader. For KPC-2, each assay was performed in 100 mM Tris-HCl pH 7.0, 0.01% Triton X-100 at 37 C. Vmax and Km were determined from initial steady-state velocities from nitrocefin read at a wavelength of 486 nm. The kinetic parameters were obtained using the non-linear portion of the data to the Henri-Michaelis (equation 1) using SigmaPlot 12.5. […] Compounds according to Formulas 5-10 were purchased from commercial sources. The last compound was de novo synthesized.

Assay [6] relates to BL21(DE3) E. coli expressing KPC-2. As to the kind of experiment: MIC study, synergy with imipenem, broth microdilution, E. coli. The conditions noted are these: imipenem alone; E. coli BL21(DE3) pET-GST-blaKPC-2; 37 C, 24 hours. The format is cell-based. How it is done:
as §1
On the technique in general: In broth dilution the organism is exposed to a series of concentrations in liquid medium.

Sequence of NDM-1 metallo-beta-lactamase (C7C422 whole entry, looked up): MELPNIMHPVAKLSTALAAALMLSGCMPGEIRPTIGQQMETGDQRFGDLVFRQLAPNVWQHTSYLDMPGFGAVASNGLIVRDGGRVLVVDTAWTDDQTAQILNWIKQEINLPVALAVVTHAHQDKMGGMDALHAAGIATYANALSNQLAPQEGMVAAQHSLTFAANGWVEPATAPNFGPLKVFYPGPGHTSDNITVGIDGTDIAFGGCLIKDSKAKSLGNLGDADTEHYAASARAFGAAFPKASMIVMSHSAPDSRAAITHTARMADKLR
Sequence of KPC-2 beta-lactamase (Q9F663 whole entry, looked up): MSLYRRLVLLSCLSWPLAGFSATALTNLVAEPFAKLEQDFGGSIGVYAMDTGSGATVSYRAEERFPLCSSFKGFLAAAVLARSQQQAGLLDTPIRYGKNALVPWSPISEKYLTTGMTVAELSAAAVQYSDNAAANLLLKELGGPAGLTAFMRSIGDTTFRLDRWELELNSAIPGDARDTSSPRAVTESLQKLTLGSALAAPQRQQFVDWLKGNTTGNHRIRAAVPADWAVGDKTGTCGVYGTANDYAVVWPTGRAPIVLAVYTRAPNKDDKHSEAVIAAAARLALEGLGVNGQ
Sequence of His-tag SHV-2 (P0A9Z7 22-286 limits assumed): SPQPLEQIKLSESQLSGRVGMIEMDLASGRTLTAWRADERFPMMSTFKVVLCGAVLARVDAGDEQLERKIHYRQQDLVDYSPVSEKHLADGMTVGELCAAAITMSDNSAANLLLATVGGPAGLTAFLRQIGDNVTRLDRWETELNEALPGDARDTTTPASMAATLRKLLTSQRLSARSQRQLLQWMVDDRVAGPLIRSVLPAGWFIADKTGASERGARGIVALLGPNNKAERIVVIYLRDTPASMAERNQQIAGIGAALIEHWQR

A word on the MIC: it is the lowest concentration found to suppress growth. As for `Cc1cc2oc(=O)cc(CP(=O)(O)O)c2cc1C` [Compound 73043], the MIC in assay [1] was above 32 µg/mL.
As usually defined, the Ki is the equilibrium dissociation constant of an inhibitor or competing ligand from its target. High values mean lower affinity, low ones higher affinity. With `Cc1cc(Br)c2c(CP(=O)(O)O)cc(=O)oc2c1` [Compound 994942], the Ki in assay [2] was 1.8 µM; in assay [3], 55 µM.
In assay [2], `O=c1cc(CP(=O)(O)O)c2ccccc2[nH]1` [Compound 994943] displayed a Ki of 9.12 µM.
On to `O=c1cc(CP(=O)(O)O)c2c(F)cc(F)cc2o1` [Compound 995015], for which affinity in assay [2] was put at a Ki of 4.7 µM.
Same read-out and setting: then `O=P(O)(O)Cc1cccc2cccnc12` [Compound 995016], with 24.3 µM; and `Cn1c(=O)cc(CP(=O)(O)O)c2ccccc21` [Compound 995018], with 15.6 µM.
Consider `O=P(O)(O)Cc1cccc2ccc[n+]([O-])c12` [Compound 995019], for which the “VIM-2 Ki” value in assay [2] is “precipitation”. The “His-Tag KPC-2 Ki” value in assay [4] was “precipitation”. Also, in assay [3], the “NDM-1 Ki” value is on record as “precipitation”. The “His-tag SHV-2 Ki” value in assay [5] is on record as “precipitation”.
Turning to `C[C@@H](O)[C@H]1C(=O)N2C(C(=O)O)=C(SCCN=CN)C[C@H]12` [Imipenem, imipenem, reference compound], the figures for the MIC in assay [1] and in assay [6] were 8 µg/mL and 4 µg/mL, respectively.
